# Experimental data published in patent US20230143612A1 (Arbutus Biopharma Corporation, priority 2020, published 2023).
# Molecular target: PD-L1 His protein / PD-1 Fc protein (Homo sapiens, UniProt Q9NZQ7)
# Test: HTRF Assay (PD-1/PD-L1 interaction)
# Type: binding
# Settings: PD-L1 His 6 nM, PD-1 Fc 6 nM
# In short: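 Compounds tested from 20 μM down to 0.001 μM (3-fold) against 6 nM PD-L1 His and 6 nM PD-1 Fc, 15 min room temperature incubation. Detection after 1 h at room temperature with Tb cryptate anti-6HIS and XL665 anti-human IgG reagents (mixture at 0.35 nM and 6.7 nM), HTRF signal.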
# PD-L1 His protein / PD-1 Fc protein, sequence (Q9NZQ7 19-238 limits assumed): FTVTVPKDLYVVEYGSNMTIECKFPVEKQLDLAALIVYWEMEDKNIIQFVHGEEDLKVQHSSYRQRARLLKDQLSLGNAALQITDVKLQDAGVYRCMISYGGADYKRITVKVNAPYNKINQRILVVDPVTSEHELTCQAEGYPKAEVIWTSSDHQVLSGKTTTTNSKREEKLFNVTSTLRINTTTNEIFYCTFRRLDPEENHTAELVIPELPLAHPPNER
row,SMILES,IC50 [nM]
1,"COc1nc(-c2cccc(-c3cccc(-c4cc5c(=O)n(C)c(CNC6CCN(C(C)=O)CC6)nn5c4)c3Cl)c2Cl)ccc1CNC[C@@H]1CCC(=O)N1 [Example 457, 2-[[(1-Acetyl-4-piperidyl)amino]methyl]-6-[2-chloro-3-[2-chloro-3-[6-methoxy-5-[[[(2S)-5-oxopyrrolidin-2-yl]methylamino]methyl]-2-pyridyl]phenyl]phenyl]-3-methyl-pyrrolo[2,1-f][1,2,4]triazin-4-one]",190
2,"COc1nc(-c2cccc(-c3cccc(-c4ccn5c(=O)c(CNCC(C)(C)CO)cnc5c4)c3Cl)c2Cl)ccc1CNC[C@@H]1CCC(=O)N1 [Example 273, (S)-8-(2,2′-dichloro-3′-(6-methoxy-5-((((5-oxopyrrolidin-2-yl)methyl)amino)methyl)pyridin-2-yl)-[1,1′-biphenyl]-3-yl)-3-(((3-hydroxy-2,2-dimethylpropyl)amino)methyl)-4H-pyrido[1,2-a]pyrimidin-4-one]",4.2
3,"COc1nc(-c2cccc(-c3cccc(-c4cnc(NCCNC(C)=O)c(OC)n4)c3Cl)c2Cl)cnc1NCCNC(C)=O [Example 38, N,N′-((((2,2′-Dichloro-[1,1′-biphenyl]-3,3′-diyl)bis(3-methoxypyrazine-5,2-diyl))bis(azanediyl))bis(ethane-2,1-diyl))diacetamide]",20
4,"COc1nc(-c2cccc(-c3cccc(-c4ccc5c(CNC[C@H](C)OC)cn(C)c5n4)c3Cl)c2Cl)ccc1CNC[C@@H]1CCC(=O)N1 [Example 445, (5S)-5-[[[6-[2-Chloro-3-[2-chloro-3-[3-[[[(2S)-2-methoxypropyl]amino]methyl]-1-methyl-pyrrolo[2,3-b]pyridin-6-yl]phenyl]phenyl]-2-methoxy-3-pyridyl]methylamino]methyl]pyrrolidin-2-one]",460
5,"COc1nc(-c2cccc(-c3cccc(-c4ccn5c(=O)c(CN6CC(C(=O)O)C6)cnc5c4)c3Cl)c2Cl)cnc1CNC[C@@H]1CCC(=O)N1 [Example 117, (S)-1-((8-(2,2′-Dichloro-3′-(6-methoxy-5-((((5-oxopyrrolidin-2-yl)methyl)amino)methyl)pyrazin-2-yl)-[1,1′-biphenyl]-3-yl)-4-oxo-4H-pyrido[1,2-a]pyrimidin-3-yl)methyl)azetidine-3-carboxylic acid]",0.4
6,"COc1nc(-c2cccc(-c3cccc(-c4ccn5c(=O)cc(CN[C@H]6C[C@](C)(O)C6)nc5c4)c3Cl)c2Cl)ccc1CNC[C@@H]1CCC(=O)N1 [Example 376, 8-(2,2′-Dichloro-3′-(6-methoxy-5-(((((S)-5-oxopyrrolidin-2-yl)methyl)amino)methyl)pyridin-2-yl)-[1,1′-biphenyl]-3-yl)-2-((((1r,3r)-3-hydroxy-3-methylcyclobutyl)amino)methyl)-4H-pyrido[1,2-a]pyrimidin-4-one]",0.7
7,"COc1nc(-c2cccc(-c3cccc(-c4ccn5c(=O)c(CNC[C@@H]6CCC(=O)N6)ccc5c4)c3C)c2Cl)cnc1CNC[C@@H]1CCC(=O)N1 [Example 49, 8-(2′-Chloro-3′-(6-methoxy-5-(((((S)-5-oxopyrrolidin-2-yl)methyl)amino)methyl)pyrazin-2-yl)-2-methyl-[1,1′-biphenyl]-3-yl)-3-(((((S)-5-oxopyrrolidin-2-yl)methyl)amino)methyl)-4H-quinolizin-4-one]",6.3
8,"COc1nc(-c2cccc(-c3cccc(-c4cc5c(=O)n(C)c(CN6CC7(C6)CN(C(C)=O)C7)nn5c4)c3Cl)c2Cl)ccc1CNC[C@@H]1CCC(=O)N1 [Example 460, 2-[(2-Acetyl-2,6-diazaspiro[3.3]heptan-6-yl)methyl]-6-[2-chloro-3-[2-chloro-3-[6-methoxy-5-[[[(2S)-5-oxopyrrolidin-2-yl]methylamino]methyl]-2-pyridyl]phenyl]phenyl]-3-methyl-pyrrolo[2,1-f][1,2,4]triazin-4-one]",9.9
9,"COc1nc(-c2cccc(-c3cccc(-c4ccn5c(=O)c(CN6CC[C@@H](O)C6)cnc5c4)c3Cl)c2Cl)ccc1CNC[C@@H]1CCC(=O)N1 [Example 169, 8-(2,2′-Dichloro-3′-(6-methoxy-5-(((((S)-5-oxopyrrolidin-2-yl)methyl)amino)methyl)pyridin-2-yl)-[1,1′-biphenyl]-3-yl)-3-(((R)-3-hydroxypyrrolidin-1-yl)methyl)-4H-pyrido[1,2-a]pyrimidin-4-one]",0.4
10,"COc1nc(-c2cccc(-c3cccc(-c4ccn5c(=O)c(CNC[C@@H]6CCC(=O)N6)cnc5c4)c3Cl)c2Cl)ccc1C1=NCC(O)CN1 (stereo partly drawn) [Example 178, 8-(2,2′-Dichloro-3′-(5-(5-hydroxy-1,4,5,6-tetrahydropyrimidin-2-yl)-6-methoxypyridin-2-yl)-[1,1′-biphenyl]-3-yl)-3-(((((S)-5-oxopyrrolidin-2-yl)methyl)amino)methyl)-4H-pyrido[1,2-a]pyrimidin-4-one]",3.5
11,"COc1nc(-c2cccc(-c3cccc(-c4ccn5c(=O)c(CN(C)C[C@H](C)O)cnc5c4)c3Cl)c2Cl)ccc1CNC[C@@H]1CCC(=O)N1 [Example 319, 8-[2-Chloro-3-[2-chloro-3-[6-methoxy-5-[[[(2S)-5-oxopyrrolidin-2-yl]methylamino]methyl]-2-pyridyl]phenyl]phenyl]-3-[[[(2S)-2-hydroxypropyl]-methyl-amino]methyl]pyrido[1,2-a]pyrimidin-4-one]",0.1
12,"COc1nc(-c2cccc(-c3cccc(-c4ccn5c(=O)c(C6=NCC(C(=O)O)N6)cnc5c4)c3Cl)c2Cl)ccc1CNC[C@@H]1CCC(=O)N1 (mixture of isomers) [Example 179, 2-(8-(2,2′-Dichloro-3′-(6-methoxy-5-(((((S)-5-oxopyrrolidin-2-yl)methyl)amino)methyl)pyridin-2-yl)-[1,1′-biphenyl]-3-yl)-4-oxo-4H-pyrido[1,2-a]pyrimidin-3-yl)-4,5-dihydro-1H-imidazole-5-carboxylic acid]",0.1
13,"COc1nc(-c2cccc(-c3cccc(-c4ccn5c(=O)c(CN[C@H]6C[C@](C)(O)C6)c(OC)nc5c4)c3Cl)c2Cl)ccc1CNC[C@@H]1CCC(=O)N1 [Example 348, 8-(2,2′-Dichloro-3′-(6-methoxy-5-(((((S)-5-oxopyrrolidin-2-yl)methyl)amino)methyl)pyridin-2-yl)-[1,1′-biphenyl]-3-yl)-3-((((1r,3r)-3-hydroxy-3-methylcyclobutyl)amino)methyl)-2-methoxy-4H-pyrido[1,2-a]pyrimidin-4-one]",2.2
14,"COc1nc(-c2cccc(-c3cccc(-c4ccn5c(=O)c(CN[C@H]6C[C@](C)(O)C6)c(C)nc5c4)c3Cl)c2Cl)ccc1CN[C@H]1C[C@](C)(O)C1 [Example 205, 8-(2,2′-Dichloro-3′-(5-((((1r,3r)-3-hydroxy-3-methylcyclobutyl)amino)methyl)-6-methoxypyridin-2-yl)-[1,1′-biphenyl]-3-yl)-3-((((1r,3r)-3-hydroxy-3-methylcyclobutyl)amino)methyl)-2-methyl-4H-pyrido[1,2-a]pyrimidin-4-one]",0.9
15,"COc1nc(-c2cccc(-c3cccc(-c4ccn5c(=O)c(CN6CCC[C@@]6(C)C(=O)O)cnc5c4)c3Cl)c2Cl)ccc1CNCCO [Example 168, (S)-1-((8-(2,2′-Dichloro-3′-(5-(((2-hydroxyethyl)amino)methyl)-6-methoxypyridin-2-yl)-[1,1′-biphenyl]-3-yl)-4-oxo-4H-pyrido[1,2-a]pyrimidin-3-yl)methyl)-2-methylpyrrolidine-2-carboxylic acid]",0.2
